Tests used:
[1] = biological target: T1, rat GPR55 (Rattus norvegicus, UniProt F1MAK4); assay: [35S]-GTPγS binding, membranes of HEK293s cells transfected with rat GPR55; type: biochemical; details: agonist mode; mean ± SEM, at least three experiments; read-out: GPR55 EC50, Rat
T1 construct: expressed in transfected cells; host or cells: HEK293s, transient transfection; membranes prepared
T1 sequence (F1MAK4 1-319): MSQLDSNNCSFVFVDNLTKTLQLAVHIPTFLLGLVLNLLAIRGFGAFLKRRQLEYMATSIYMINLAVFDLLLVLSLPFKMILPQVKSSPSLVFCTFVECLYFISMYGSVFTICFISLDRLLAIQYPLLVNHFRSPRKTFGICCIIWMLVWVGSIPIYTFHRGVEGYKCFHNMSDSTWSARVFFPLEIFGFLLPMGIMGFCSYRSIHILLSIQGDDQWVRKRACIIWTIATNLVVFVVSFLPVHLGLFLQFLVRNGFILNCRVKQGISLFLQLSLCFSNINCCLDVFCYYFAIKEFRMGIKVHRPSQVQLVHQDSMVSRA
Procedure: HEK293s cells were transiently transfected with cDNA encoding rat or mouse CB1 or GPR55 and membranes were prepared as previously described (Ryberg et al. [2007]). In short, agonist activities in [^35S]-GTPγS binding assays were determined by the addition of ligand at 30°C for 45 min in membrane buffer [50 mmol/L NaCl, 5 mmol/L MgCl2, 0.5 mmol/L EDTA, 25 mmol/L HEPES (all Sigma, Gillingham, Dorset, UK); pH 7.4] containing 0.05 μg μL^−1 of membrane protein with 0.01% BSA, 25 μmol/L guanosine 5′-diphosphate (GDP), 100 μmol/L dithiothreitol (DTT), and 0.53 nmol/L [^35S]GTPγS (PerkinElmer) in a final volume of 200 μL. Antagonist assays were performed similarly, with the addition of an EC80 concentration of CP55940 as a nonselective CB1/CB2 agonist in conjunction with the ligand to be tested. Nonspecific binding was determined in the presence of 20 μmol/L unlabeled GTPγS. The reaction was terminated by addition of ice-cold wash buffer (50 mmol/L Tris-HCl, 5 mmol/L MgCl2, 50 mmol/L NaCl; pH 7.4) followed by rapid filtration under vacuum through 96-well B-glass fiber filter plates (PerkinElmer, Waltham, Massachusetts, USA) using a Biomek FX (Beckman Coulter, Bromma, Sweden). The filter plates were dried (30 min at 50°C) before scintillation liquid (PerkinElmer) was added onto the filters and the bound radioactivity was determined using a scintillation counter (Wallac). Data were fitted with a four-parameter logistic fit using the equation y = A + (B − A)/1 + ((C/x)^D), where A is no activation, B is full activation, C is the EC50, and D is the Hill slope. All data were based on at least three independent experiments.

[2] = tested on: conscious SHR; assay: Blood pressure and heart rate responses in conscious hypertensive rats (SHR)
Procedure: Following anesthesia with isoflurane (4% in air followed by 2% during surgery) with supplemental Romefen® (10 mg kg^−1 s.c.; Merial SAS, Lyon, France) for analgesia, a polyethylene catheter (PE10) was inserted into the abdominal aorta, proximal to the kidneys, for BP recording, and a silicon catheter (SEDAT, Irigny, France) was inserted into the jugular vein for drug administration. Both catheters were tunneled subcutaneously to the neck region and anchored to an inert button. Immediately after completion of surgery the rats were connected to a tethered swivel system with a continuous intra-arterial infusion (700 μL h^−1) of 0.9% NaCl containing melagatran (10 mg L^−1) in order to keep the arterial line open. The anesthetic and surgical procedures for the CB1^−/−, GPR55^−/−, and WT mice used for the studies in conscious animals were identical to those in the rat, with the exception that the arterial catheter was placed in the descending aorta via the carotid artery. Following the completion of surgery, the animals were allowed to recover for 24 h with free access to food and water.
In order to take account of any vehicle responses and variations in the time course of the responses to the various cannabinoid ligands, a standard approach was adopted to measuring the BP responses in all experimental models. […] All drug responses were compared directly with the vehicle responses to determine the exact magnitude of the response to the ligand.

[3] = O-1602 5 mg kg−1, +AM281 (10 mg kg−1), metoprolol pretreated
[4] = O-1602 5 mg kg−1, +CBD (5 mg kg−1), metoprolol pretreated
[5] = O-1602 5 mg kg−1, +CBD and AM281, metoprolol pretreated
[6] = O-1602 10 mg kg−1, +AM281 (10 mg kg−1), metoprolol pretreated
[7] = O-1602 10 mg kg−1, +CBD (5 mg kg−1), metoprolol pretreated
[8] = O-1602 10 mg kg−1, +CBD and AM281, metoprolol pretreated
[9] = O-1602 10 mg kg−1, Control, metoprolol pretreated
[10] = O-1602 20 mg kg−1, +AM281 (10 mg kg−1), metoprolol pretreated
[11] = O-1602 20 mg kg−1, +CBD (5 mg kg−1), metoprolol pretreated
[12] = O-1602 20 mg kg−1, +CBD and AM281, metoprolol pretreated
[13] = O-1602 20 mg kg−1, Control, metoprolol pretreated

C=C(C)[C@@H]1CCC(C)=C[C@H]1c1c(C)cc(O)cc1O [O-1602]
EC50 [1]: 0.02 ± 0.003 µM | HR tachycardic response – area under the curve [2, 3]: 39 ± 11 arbitrary units | MABP depressor response - area above the curve [2, 3]: 196 ± 44 arbitrary units | HR tachycardic response – area under the curve [2, 4]: 68 ± 11 arbitrary units | MABP depressor response - area above the curve [2, 4]: 189 ± 32 arbitrary units | HR tachycardic response – area under the curve [2, 5]: 53 ± 22 arbitrary units | MABP depressor response - area above the curve [2, 5]: 41 ± 17 arbitrary units | MABP depressor response - area above the curve ([2]; O-1602 5 mg kg−1, Control, metoprolol 10 mg kg−1 i.v. pretreated): 59 ± 21 arbitrary units | HR tachycardic response – area under the curve ([2]; O-1602 5 mg kg−1, Control, metoprolol pretreated): 61 ± 24 arbitrary units | HR tachycardic response – area under the curve [2, 6]: 40 ± 12 arbitrary units | MABP depressor response - area above the curve [2, 6]: 160 ± 31 arbitrary units | HR tachycardic response – area under the curve [2, 7]: 79 ± 29 arbitrary units | MABP depressor response - area above the curve [2, 7]: 23 ± 17 arbitrary units | HR tachycardic response – area under the curve [2, 8]: 37 ± 32 arbitrary units | MABP depressor response - area above the curve [2, 8]: 180 ± 29 arbitrary units | HR tachycardic response – area under the curve [2, 9]: 18 ± 8 arbitrary units | MABP depressor response - area above the curve [2, 9]: 56 ± 22 arbitrary units | HR tachycardic response – area under the curve [2, 10]: 56 ± 26 arbitrary units | MABP depressor response - area above the curve [2, 10]: 191 ± 30 arbitrary units | HR tachycardic response – area under the curve [2, 11]: 98 ± 32 arbitrary units | MABP depressor response - area above the curve [2, 11]: 73 ± 38 arbitrary units | HR tachycardic response – area under the curve [2, 12]: 38 ± 16 arbitrary units | MABP depressor response - area above the curve [2, 12]: 199 ± 29 arbitrary units | HR tachycardic response – area under the curve [2, 13]: 72 ± 13 arbitrary units | MABP depressor response - area above the curve [2, 13]: 26 ± 16 arbitrary units | changes in MABP or HR ([2]; O-1602 alone, three ascending doses 5, 10, and 20 mg kg−1 spaced 20 min apart): did not induce any changes

— publication PMC4492759, “Pharmacological profiling of the hemodynamic effects of cannabinoid ligands: a combined in vitro and in vivo approach” (Pharmacology Research & Perspectives, 2015)
